Experiments:
Leukemia L1210 [1] = assay: Activity against Leukemia L1210, intraperitoneal, increase in life span of mice; format: in vivo, female mice (BDF1 family); settings: for ED (maximum ILS) / ED30: Mus musculus, L1210, ip; for ED (maximum ILS): read-out: O.D. (optimum dosage); for ED30: read-out: ILS30; for Survivors after 60 days / Max. ILS % / Therapeutic ratio TR: ip; for Survivors after 60 days: 6-membered group; for Max. ILS %: 60-day observation, versus control; for Therapeutic ratio TR: O.D./ILS30
Method in brief: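 Beginning 24 hours after intraperitoneal implantation of 1×10^5 leukemia cells, six-mouse groups of female BDF1 mice receive the test compound once daily for five consecutive days by the ip or oral route. Survival is recorded up to 60 days and compared with untreated controls.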

Leukemia L1210 [2] = assay: Activity against Leukemia L1210, oral, increase in life span of mice; format: in vivo, female mice (BDF1 family); settings: for ED (maximum ILS) / ED30: Mus musculus, L1210; for ED (maximum ILS): read-out: O.D. (optimum dosage); for ED30: read-out: ILS30; for Survivors after 60 days / Max. ILS % / Therapeutic ratio TR: oral; for Survivors after 60 days: 6-membered group; for Max. ILS %: 60-day observation, versus control; for Therapeutic ratio TR: O.D./ILS30
Description: Tests were conducted in accordance with the method for measuring antitumor activity of National Cancer Center Tokyo (A, Hoshi et al, Farumashia 9 464 (1973)). Test compounds were each intraperitoneally (referred to as ip) or orally (referred to as op) administered once a day for 5 successive days to a 6-membered group of femal mice (BDF1 family, each weighing 20 to 23 g) 24 hours after 1×10^5 cells of Leukemia L1210 have been implantated into the abdominal cavities of the mice, and the effect was evaluated by comparing the survival days of treated groups with those of an untreated group of mice (control group) in 60-day observation. An increase percentage of life span (ILS%) was calculated from said average survival days compared with those of the control group. Further, therapeutic ratio (O.D./ILD30, referred to as T.R.) of each tested compound was calculated from the daily dosage of the compound necessary to increase said average survival days by 30% as compared with the control group (this dosage is referred to as ILS 30) and the daily dosage giving a maximum increase of life span to mice implantated with L1210 cells, namely an optimum dosage (referred to as O.D.). The results of five successive days intraperitoneal administrations of test compounds were shown in Tables I to III, and those of five successive oral administrations in Table IV.

[3] = Acute toxicity (LD50, Behrens-Karber method); format: in vivo, ICR mice; settings: ip, mortality during 30 days; for LD50 at 720 h: mouse, in vivo
Description: Test compounds, dissolved or suspended in 0.5% aqueous CMC, were each intraperitoneally administered to ICR mice in a dose of 0.1 ml per 10 g body weight. LD50 (mg/kg) value of each test compound was calculated from the mortality of mice during 30 days by the Behrens-Karber method.

[4] = ip once a day for 5 successive days, daily dosage giving maximum increase of life span
[5] = ip once a day for 5 successive days, daily dosage increasing average survival days by 30%
[6] = oral once a day for 5 successive days, daily dosage giving maximum increase of life span
[7] = oral once a day for 5 successive days, daily dosage increasing average survival days by 30%

Compound	ED (maximum ILS) (Leukemia L1210 [1]; [4])	ED30 (Leukemia L1210 [1]; [5])	Survivors after 60 days (Leukemia L1210 [1])	Max. ILS % (Leukemia L1210 [1])	Therapeutic ratio TR (Leukemia L1210 [1])	ED (maximum ILS) (Leukemia L1210 [2]; [6])	ED30 (Leukemia L1210 [2]; [7])	Survivors after 60 days (Leukemia L1210 [2])	Max. ILS % (Leukemia L1210 [2])	Therapeutic ratio TR (Leukemia L1210 [2])	LD50 at 720 h [3]	O.D. (optimum dosage) (Leukemia L1210 [1]; [4])	ILS30 (Leukemia L1210 [1]; [5])	O.D. (optimum dosage) (Leukemia L1210 [2]; [6])	ILS30 (Leukemia L1210 [2]; [7])	LD50 [3]
COCC(C)N(C(=O)N(CCCl)N=O)[C@H]1[C@@H](O)[C@@H](CO)O[C@H](OCC(C)C)[C@@H]1O (stereo partly drawn) [Compound 126, 3-(1-methyl-2-methoxyethyl)-3-(isobutyl α-D-galactopyranose-3-yl)-1-(2-chloroethyl)-1-nitrosourea]	250 mg/kg	6.22 mg/kg	3/6	> 355%	40.2	240 mg/kg	15.4 mg/kg	3/6	> 350%	15.6	785 mg/kg	–	–	–	–	–
COC(C)CN(C(=O)N(CCCl)N=O)[C@@H]1[C@@H](OCC(C)C)OC[C@@H](O)[C@H]1O (stereo partly drawn) [Compound 159, 3-(2-methoxy-n-propyl)-3-(isobutyl α-D-arabinopyranose-2-yl)-1-(2-chloroethyl)-1-nitrosourea]	160 mg/kg	2.61 mg/kg	6/6	> 700%	61.3	180 mg/kg	10.9 mg/kg	5/6	> 625%	16.5	520 mg/kg	–	–	–	–	–
COCCN(C(=O)N(CCCl)N=O)C1C(O)C(CO)OC(OC2CCCCC2)C1O [Compound 89, 3-(2-methoxyethyl)-3-(cyclohexyl α-D-glucopyranose-3-yl)-1-(2-chloroethyl)-1-nitrosourea]	170 mg/kg	2.66 mg/kg	6/6	> 700%	63.9	210 mg/kg	12.5 mg/kg	4/6	> 450%	16.8	690 mg/kg	–	–	–	–	–
3-tert-butyl-3-(1-methoxy-2-methoxyethyl α-D-glucopyranose-6-yl)-1-(2-chloroethyl)-1-nitrosourea [Compound 195]	–	–	6/6	> 700%	55.4	–	–	5/6	> 620%	23.5	–	160 mg/kg	2.89 mg/kg	200 mg/kg	8.51 mg/kg	540 mg/kg
COCCOCCO[C@H]1O[C@H](CN(C(=O)N(CCCl)N=O)C(C)(C)C)[C@@H](O)[C@H](O)[C@H]1O [Compound 197]	160 mg/kg	2.7 mg/kg	6/6	> 700%	59.2	200 mg/kg	9.26 mg/kg	5/6	> 625%	21.6	530 mg/kg	–	–	–	–	–
CCOCCO[C@H]1O[C@H](CN(C(=O)N(CCCl)N=O)C(C)C)[C@H](O)[C@H](O)[C@H]1O [Compound 113, 3-isopropyl-3-(2-ethoxyethyl α-D-galactopyranose-6-yl)-1-(2-chloroethyl)-1-nitrosourea]	150 mg/kg	2.23 mg/kg	6/6	> 700%	67.3	180 mg/kg	7.32 mg/kg	6/6	> 700%	24.6	450 mg/kg	–	–	–	–	–
